From patent publication USRE38117E1, “Trioxane dimer compound having antiproliferative and antitumor activities” (Hauser, Inc., priority 1995, dated 2003)

Assays:
Assay type in all cases: cell-based
[1] = test system: NCI-H460; test: NCI 60 cell line screen (SRB), Non-Small Cell Lung Cancer
[2] = test system: K-562; test: NCI 60 cell line screen (SRB), Leukemia; details: K-562 (Leukemia)
[3] = test system: SK-MEL-28; test: NCI 60 cell line screen (SRB), Melanoma; details: SK-MEL-28 (Melanoma)
[4] = test system: MOLT-4; test: NCI 60 cell line screen (SRB), Leukemia
[5] = test system: MALME-3M; test: NCI 60 cell line screen (SRB), Melanoma; details: MALME-3M (Melanoma)
[6] = test system: PC-3; test: NCI 60 cell line screen (SRB), Prostate Cancer; details: PC-3 (Prostate Cancer)
[7] = test system: UACC-62; test: NCI 60 cell line screen (SRB), Melanoma; details: UACC-62 (Melanoma)
[8] = test system: ACHN; test: NCI 60 cell line screen (SRB), Renal Cancer
[9] = test system: MDA-MB231/ATCC; test: NCI 60 cell line screen (SRB), Breast Cancer
[10] = test system: OVCAR-8; test: NCI 60 cell line screen (SRB), Ovarian Cancer; details: OVCAR-8 (Ovarian Cancer)
[11] = test system: UO-31; test: NCI 60 cell line screen (SRB), Renal Cancer; details: UO-31 (Renal Cancer)
[12] = test system: BT-549; test: NCI 60 cell line screen (SRB), Breast Cancer; details: BT-549 (Breast Cancer)
[13] = test system: MCF7; test: NCI 60 cell line screen (SRB), Breast Cancer
[14] = test system: RXF 393; test: NCI 60 cell line screen (SRB), Renal Cancer; details: RXF 393 (Renal Cancer)
[15] = test system: HOP-62; test: NCI 60 cell line screen (SRB), Non-Small Cell Lung Cancer; details: HOP-62 (Non-Small Cell Lung Cancer)
[16] = test system: SW-620; test: NCI 60 cell line screen (SRB), Colon Cancer; details: SW-620 (Colon Cancer)
[17] = test system: SR; test: NCI 60 cell line screen (SRB), Leukemia
[18] = test system: IGROVI; test: NCI 60 cell line screen (SRB), Ovarian Cancer
[19] = test system: HCT-116; test: NCI 60 cell line screen (SRB), Colon Cancer; details: HCT-116 (Colon Cancer)
[20] = test system: RPMI-8226; test: NCI 60 cell line screen (SRB), Leukemia; details: RPMI-8226 (Leukemia)
[21] = test system: NCI-H226; test: NCI 60 cell line screen (SRB), Non-Small Cell Lung Cancer
[22] = test system: OVCAR-5; test: NCI 60 cell line screen (SRB), Ovarian Cancer; details: OVCAR-5 (Ovarian Cancer)
[23] = test system: NCI-H23; test: NCI 60 cell line screen (SRB), Non-Small Cell Lung Cancer

C[C@@H]1CC[C@H]2[C@@H](C)C(=O)O[C@@H]3O[C@@]4(C)CC[C@@H]1[C@]32OO4 [QHS, 3,6,9-trimethyl-9,10b-epidioxyperhydropyrano[4,3,2-jk]benzoxepin-2-one, reference compound]
−4.17 M: Log10GI50 [6]
−4.31 M: Log10GI50 [18]
−4.00 M: Log10TGI [2] | Log10TGI [9] | Log10TGI [11] | Log10TGI [12] | Log10GI50 [19]
−4.33 M: Log10GI50 [2]
−4.06 M: Log10TGI [5] | Log10GI50 [11] | Log10GI50 [12]
−4.73 M: Log10GI50 ([4]; MOLT-4 (Leukemia))
>−4.00 M: Log10GI50 [1] | Log10LC50 [1] | Log10TGI [1] | Log10LC50 [2] | Log10GI50 [3] | Log10LC50 [3] | Log10TGI [3] | Log10LC50 [5] | Log10LC50 [6] | Log10TGI [6] | Log10GI50 [7] | Log10LC50 [7] | Log10TGI [7] | Log10GI50 [8] | Log10LC50 [8] | Log10TGI [8] | Log10LC50 [9] | Log10GI50 [10] | Log10LC50 [10] | Log10TGI [10] | Log10LC50 [11] | Log10LC50 [12] | Log10GI50 [13] | Log10LC50 [13] | Log10TGI [13] | Log10LC50 [14] | Log10TGI [14] | Log10GI50 [15] | Log10LC50 [15] | Log10TGI [15] | Log10GI50 [16] | Log10LC50 [16] | Log10TGI [16] | Log10GI50 [17] | Log10LC50 [17] | Log10TGI [17] | Log10LC50 [18] | Log10TGI [18] | Log10LC50 [19] | Log10TGI [19] | Log10GI50 [20] | Log10LC50 [20] | Log10TGI [20] | Log10GI50 [21] | Log10LC50 [21] | Log10TGI [21] | Log10GI50 [22] | Log10LC50 [22] | Log10TGI [22] | Log10GI50 [23] | Log10LC50 [23] | Log10TGI [23]
−4.08 M: Log10GI50 [14]
−4.20 M: Log10GI50 [9]
greater than 10^−4 molar: drug concentration necessary to achieve primary growth inhibition (percentage growth +50) ([4]; MOLT-4, read from dose response curves FIGS. 10a-10e)
